Experimental data as given in patent US12336991B2, “Factor XIIA inhibitors” (UNIVERSITY OF LEEDS, priority 2018, dated 2025).

Assays:
Type in all cases: biochemical
FXIIa = target: T1, FXIIa (Homo sapiens, UniProt P00748); experiment: Determination of Factor XIIa inhibition, chromogenic substrate S-2302 assay; settings: human FXIIa alpha
T1 sequence (P00748 373-615 limits assumed): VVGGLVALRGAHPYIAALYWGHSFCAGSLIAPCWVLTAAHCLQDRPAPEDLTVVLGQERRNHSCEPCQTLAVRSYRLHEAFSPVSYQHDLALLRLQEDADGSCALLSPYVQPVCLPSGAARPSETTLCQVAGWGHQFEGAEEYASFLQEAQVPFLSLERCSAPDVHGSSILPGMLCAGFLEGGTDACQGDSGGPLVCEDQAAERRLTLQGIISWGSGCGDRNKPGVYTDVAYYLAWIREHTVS
T1 sequence (P00748 20-372 partner limits assumed): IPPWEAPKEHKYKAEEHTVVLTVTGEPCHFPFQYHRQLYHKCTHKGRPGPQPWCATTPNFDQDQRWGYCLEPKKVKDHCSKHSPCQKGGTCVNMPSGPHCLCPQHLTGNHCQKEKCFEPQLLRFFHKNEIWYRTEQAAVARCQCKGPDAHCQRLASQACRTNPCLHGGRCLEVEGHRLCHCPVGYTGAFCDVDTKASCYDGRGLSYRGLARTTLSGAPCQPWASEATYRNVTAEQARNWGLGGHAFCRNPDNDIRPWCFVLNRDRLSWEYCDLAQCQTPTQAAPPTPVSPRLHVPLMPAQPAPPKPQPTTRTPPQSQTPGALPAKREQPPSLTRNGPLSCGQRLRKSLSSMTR
Summary of the method: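 FXIIa (10 nM) preincubated with compound 10 min at 37° C. in 50 mM Tris, 137 mM NaCl pH 7.4, 5% DMSO, top concentration 500 μM, then S-2302 added ([…]). Absorbance at 405 nm read kinetically for 3 h; IC50 from initial rates, converted to Ki by Cheng-Prusoff.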

thrombin = target: T2, thrombin (Homo sapiens, UniProt P00734); experiment: Determination of selectivity: thrombin inhibition, chromogenic substrate GPR assay; settings: fold selectivity for FXIIa over thrombin
T2 construct: FXa (5 nM) and thrombin (5 nM)
Summary of the method: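 Thrombin (5 nM) preincubated with compound 10 min at 37 °C in 50 mM Tris, 137 mM NaCl, pH 7.4, 5% DMSO, then GPR substrate ([…]) added. Absorbance at 405 nm read kinetically for 3 h; IC50 from initial rates, converted to Ki via Ki=IC50/(1+[S]/Km).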

FXa = FXa (Homo sapiens, UniProt P00742); experiment: Determination of selectivity: FXa inhibition, chromogenic substrate S2765 assay; settings: fold selectivity for FXIIa over FXa
Summary of the method: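 Human FXa (5 nM) preincubated with compound (top 500 μM, 5% DMSO) 10 min at 37 °C in 50 mM Tris, 137 mM NaCl pH 7.4, then S2765 ([…]) added; A405 kinetics over 3 h at 37 °C. IC50 from initial rates, converted to Ki via Cheng-Prusoff.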

FXa, sequence (P00742 235-488 limits assumed): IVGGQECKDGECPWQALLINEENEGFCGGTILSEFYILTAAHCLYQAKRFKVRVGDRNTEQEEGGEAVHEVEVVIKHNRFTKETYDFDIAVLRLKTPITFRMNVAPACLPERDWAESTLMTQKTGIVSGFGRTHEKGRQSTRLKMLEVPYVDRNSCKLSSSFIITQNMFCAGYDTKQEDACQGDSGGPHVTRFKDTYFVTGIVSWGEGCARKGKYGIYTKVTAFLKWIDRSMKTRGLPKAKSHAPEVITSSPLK
FXa, sequence (P00742 41-179 partner limits assumed): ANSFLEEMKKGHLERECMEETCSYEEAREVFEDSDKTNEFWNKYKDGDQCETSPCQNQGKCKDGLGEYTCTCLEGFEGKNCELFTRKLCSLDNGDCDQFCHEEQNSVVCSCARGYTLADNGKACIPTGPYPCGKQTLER

Compound	Ki (FXIIa)	FXa (human)/FXIIa alpha (human) (FXa)	Thrombin (human)/FXIIa alpha (human) (thrombin)
Cn1nnc2cc(CNC(=O)[C@@H]3C[C@H](Cc4ccccc4)CN3C(=O)[C@H](N)CCC(=O)N3CCCC3)ccc21 [Example M05211, (2S,4S)-1-((R)-2-Amino-5-oxo-5-pyrrolidin-1-yl-pentanoyl)-4-benzyl-pyrrolidine-2-carboxylic acid (1-methyl-1H-benzotriazol-5-ylmethyl)-amide]	200 to 2000 nM	∘∘∘	+++ (fold selectivity values greater than 100)
COc1ccc(C[C@@H]2C[C@@H](C(=O)NCc3ccc4c(c3)nnn4C)N(C(=O)[C@H]3C[C@@H](c4ccccc4OC(F)(F)F)CN3)C2)cc1 [Example M05388]	200 to 2000 nM	∘∘∘	+++ (fold selectivity values greater than 100)
COc1ccc(C[C@@H]2C[C@@H](C(=O)NCc3cc4cnccc4[nH]3)N(C(=O)[C@H](N)CCC(=O)N3CCCC3)C2)cc1 [Example M00957]	< 200 nM	∘∘∘	+++ (fold selectivity values greater than 100)
Cn1nnc2cc(CNC(=O)[C@@H]3C[C@H](C(F)(F)F)CN3C(=O)[C@H]3C[C@@H](c4ccccc4)CN3)ccc21 [Example M05280]	> 2000 nM	∘∘	++ (fold selectivity value of 10 to 100)
Nc1nccc2cc(CNC(=O)[C@@H]3C[C@H](c4ccccc4)CN3C(=O)[C@H](N)CCC(=O)N3CCCC3)ccc12 [Example M05281]	200 to 2000 nM	∘	++ (fold selectivity value of 10 to 100)
COc1ccc(C[C@@H]2C[C@@H](C(=O)NCc3ccc4c(c3)nnn4C)N(C(=O)[C@H](N)CCC(=O)N3CCNC[C@H]3C)C2)cc1 [Example M05443]	200 to 2000 nM	∘∘∘	+++ (fold selectivity values greater than 100)
COc1ccc(C[C@@H]2C[C@@H](C(=O)NCc3ccc4c(c3)nnn4C)N(C(=O)[C@H](N)CCC(=O)N3[C@H]4CC[C@@H]3CC4)C2)cc1 [Example M05394]	200 to 2000 nM	∘∘∘	+++ (fold selectivity values greater than 100)
Cn1nnc2cc(CNC(=O)[C@@H]3C[C@@H](Cc4ccncc4)CN3C(=O)[C@H]3C[C@@H](c4ccccc4)CN3)ccc21 [Example M05288]	> 2000 nM	∘∘∘	++ (fold selectivity value of 10 to 100)
Cn1nnc2cc(CNC(=O)[C@@H]3C[C@@H](Cc4ccc(S(C)(=O)=O)cc4)CN3C(=O)[C@H]3C[C@@H](c4ccccc4)CN3)ccc21 [Example M05372]	200 to 2000 nM	∘∘∘	++ (fold selectivity value of 10 to 100)

More lines, main results first:

Ki (FXIIa)	FXa (human)/FXIIa alpha (human) (FXa)	Compound	Thrombin (human)/FXIIa alpha (human) (thrombin)
< 200 nM	∘∘∘	COc1ccc(C[C@@H]2C[C@@H](C(=O)NCc3ccc4c(c3)nnn4C)N(C(=O)[C@H]3CC(c4ccc[nH]c4=O)CN3)C2)cc1 (stereo partly drawn) [Example M05419]	+++ (fold selectivity values greater than 100)
200 to 2000 nM	∘∘	COc1ccc(C[C@@H]2C[C@@H](C(=O)NCc3ccc4c(c3)nnn4C)N(C(=O)[C@H]3CC(c4ccc(F)cc4)CN3)C2)cc1 (stereo partly drawn) [Example M05340]	++ (fold selectivity value of 10 to 100)
200 to 2000 nM	∘∘∘	COc1ccc(C[C@@H]2C[C@@H](C(=O)NCc3ccc4c(c3)nnn4C)N(C(=O)[C@H]3CC(c4cccnc4F)CN3)C2)cc1 (stereo partly drawn) [Example M05418]	+++ (fold selectivity values greater than 100)
200 to 2000 nM	∘∘∘	COc1ccc(C[C@@H]2C[C@@H](C(=O)NCc3ccc4c(c3)nnn4C)N(C(=O)[C@H]3C[C@@H](Cc4ccccc4)CN3)C2)cc1 [Example M05383]	++ (fold selectivity value of 10 to 100)
200 to 2000 nM	∘∘∘	COc1ccc(C[C@@H]2C[C@@H](C(=O)NCc3ccc4c(c3)nnn4C)N(C(=O)[C@H]3CC(c4ccccc4C)CN3)C2)cc1 (stereo partly drawn) [Example M05365]	+++ (fold selectivity values greater than 100)
< 200 nM	∘∘∘	COc1ccc(C[C@@H]2C[C@@H](C(=O)NCc3ccc4c(c3)nnn4C)N(C(=O)C3NCCc4cc(OC)ccc43)C2)cc1 (stereo partly drawn) [Example M05441]	+++ (fold selectivity values greater than 100)
200 to 2000 nM	∘∘∘	COc1ccc2c(c1)CCNC2C(=O)N1C[C@H](Cc2ccncc2)C[C@H]1C(=O)NCc1ccc2c(c1)nnn2C (stereo partly drawn) [Example M05462]	+++ (fold selectivity values greater than 100)
